The test system of data set [1] is human fibroblasts. Kind of data set: Survival efficacy test on human fibroblasts (DNA, ATP, proteins, GSH). The note with it: for ATP / DNA / GSH/proteins / Proteins: quiescent fibroblasts, 3 days. In kind it is cell-based. The method, then:
Human fibroblasts were inoculated in a standard medium of a cell culture with foetal calf serum (FCS). After an incubation of 3 days the cells became quiescent, then the growth medium was exchanged for a standard medium with a range of concentrations for each ingredient to be tested. After an incubation of 3 days, the number of viable cells was determined by evaluation of the levels of and the rates of cellular DNA (fluorescent probe), ATP (enzymatic method), proteins (Bradford's method) and GSH which is evaluated according to the method of Hissin (Hissin P. J., Hilf R. A, fluorometric method for determination of oxidised and reduced Glutathione in tissues. Analytical Biochemistry (1977) volume 74, pages 214-226).

The target of data set [2] is elastase from pancreas (Sus scrofa, UniProt P00772). Kind of data set: Elastase inhibition, Elastin-Congo red as substrate. In kind it is biochemical. The protocol:
This test was carried out with an elastase from pancreas on Elastin labelled with Congo red. The time of incubation was 30 minutes at room temperature and the optical density of released Congo red was recorded after centrifugation at a wavelength of 520 nm. al-antitrypsine was used as positive reference.
The following table summarizes the results expressed as EC 50 in % w/v. (EC 50 in % w/v is the concentration in % w/v which reduces the enzymatic activity by 50%.)

The subject of data set [3] is human fibroblasts. Kind of data set: Cytophotoprotection of human fibroblasts against UV-A radiation. In kind it is cell-based. The protocol: The cytoprotection against UV-A radiation was evaluated by a test on human fibroblasts because UV-A radiation penetrates through the epidermis until the derma where it induces oxidative stress (DALLE CARBONARE M, PATHAK M A; Skin photosensitising agents and the role of reactive oxygen species in photoaging; JOURNAL OF PHOTOCHEMISTRY & PHOTOBIOLOGY, 1992, 14, 1-2, pages 105-124. This oxidative stress was evaluated in vitro by measuring of the level of released MDA (malonaldehyde) and of intracellular GSH (reduced glutathione) (Morliere P., Moisan A., Santus R., Huppe G., Mazière J. C., Dubertret L.: UV-A induced lipid peroxydation in cultured human fibroblasts. Biochim. Biophys. Acta, 1084, 3, pages 261-269 (1991)).
Expressed in keywords, the experiments were carried out as follows: • Inoculation of human fibroblasts within a growth medium (standard medium with foetal calf serum (FCS) • Incubation 3 days at 37° C., CO2=5% • Exchange of growth medium with balanced salt solution • Irradiation of fibroblasts by UV-A: 20 J/cm^2 (black light TFWN lamp) (A TFWN lamp is a certain type of marketed sunlamp well known to the skilled artisan) • Exchange of growth medium with standard medium without FCS but containing ingredient to be tested • Incubation 3 days at 37° C., CO2=5% • Recovery of supernatant medium for spectrophotometric determination of the malonaldialdehde (or MDA) rate • Cells number determined by evaluation of the levels of cellular proteins (Bradford's method) and the rate of cellular GSH was evaluated according to the method of Hissin

Data set [4] relates to skin chronic inflammation. The following applies: in vivo; cited from earlier work.
Data set [5] has as its system human keratinocytes. In words: Cytophotoprotection of human keratinocytes against UV-B radiation. The class given is cell-based. The note with it: for Cell number, % against control / Released LDH, % against control / Released PGE2, % against control: UVB. The source says: UV-B irradiation (from 280 to 320 nm) of the human skin induces a cutaneous inflammation mainly by activation of an enzyme (phospholipase A2 or PLA2), which releases arachidonic acid from the cell membranes of the cells of the skin (V. A. De Leo, D. Hanson, I. B. Weinstein and L. C. Harber—Ultraviolet radiation stimulates the release of arachidonic acid from mammalian cells in culture—Photochemistry and Photobiology (1985) volume 41N°1 pages 51-56). Then other specific enzymes (so called cyclo-oxygenases) transform arachidonic acid in active components called prostaglandines (or PG) which are secreted out of the cells. The fixation of certain prostaglandins (PGE2) on specific skin receptors is followed by redness and swelling as after a sunburn. On cultured human cells, these UV-B effects on cell membranes are associated with a release in the supernatant medium of a cytoplasmic enzyme, the Lactate Dehydrogenase or LDH (B. Bonnekoh, B. Farkas, J. Geisel and G. Mahrle—Lactate dehydrogenase release as an indicator of dithranol-induced membrane injury in cultured human keratinocytes. Dermatological research (1990) volume 282, pages 325-331).
Expressed in keywords, the experiments were carried out as follows: • Inoculation of human keratinocytes within growth medium (standard medium with fetal calf serum (FCS) • Incubation 3 days at 37° C., CO2=5% • Exchange of growth medium with balanced salt solution containing ingredient to be tested • Irradiation of keratinocytes by UV-B: 50 mJ/cm^2 (DUKE GL40E lamp) (A DUKE GL40E lamp is a certain type of marketed sunlamp well known to the skilled artisan) • Incubation 1 day at 37° C., CO2=5% • Numeration of adherent cells after trypsination (trypsination is a process based on the use of the enzyme trypsine which is a protease allowing the retrieval of cell from the support in order to seed the cells into a bigger flask and therefore to expand the cell culture) • Recovery of supernatant medium for spectrophotometric determination of the activity of LDH, and PGE2 by ELISA method

Data set [6] deals with T1, human leucocyte elastase (HLE) (Homo sapiens, UniProt P08246).
T1 sequence (P08246 30-267): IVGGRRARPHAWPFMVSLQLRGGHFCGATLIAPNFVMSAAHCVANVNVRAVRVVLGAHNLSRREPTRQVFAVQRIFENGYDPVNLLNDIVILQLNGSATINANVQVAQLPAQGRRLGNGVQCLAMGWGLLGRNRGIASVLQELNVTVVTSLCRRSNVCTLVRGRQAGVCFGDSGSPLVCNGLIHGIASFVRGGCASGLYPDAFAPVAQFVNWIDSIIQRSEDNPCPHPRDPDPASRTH
The note with it: cited from earlier work.

Data set [7] can be described thus: Toxicity tests and growth tests on human fibroblasts (cellular proteins, Bradford). The class given is cell-based. The note with it: human.
Data set [8] concerns human fibroblasts. Described as above. The class given is cell-based.
Data set [9] addresses T1, human leucocyte elastase (HLE). The following applies: read-out: HLE inhibitory activity IC(50); cited from earlier work.

elastase from pancreas, sequence (P00772 27-266): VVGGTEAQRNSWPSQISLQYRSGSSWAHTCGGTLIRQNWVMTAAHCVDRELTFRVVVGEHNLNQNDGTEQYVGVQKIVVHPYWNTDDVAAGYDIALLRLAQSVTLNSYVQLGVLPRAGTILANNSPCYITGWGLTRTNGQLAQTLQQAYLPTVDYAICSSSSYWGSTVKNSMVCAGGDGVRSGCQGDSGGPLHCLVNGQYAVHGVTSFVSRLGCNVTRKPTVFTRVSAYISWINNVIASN

Turning to `CC1(C)CC[C@]2(CO)CC[C@]3(C)C(=CC[C@@H]4[C@@]5(C)CC[C@H](O)C(C)(C)[C@@H]5CC[C@]43C)[C@@H]2C1` [erythrodiol], in data set [1] (0.00001% w/v), the ATP stood at 107%, the DNA was found to be 96%, the GSH/proteins is given as 120% and the Proteins turned out to be 100%. In data set [1] (0.00003% w/v), this molecule came in with an ATP of 99%, a DNA of 108%, a GSH/proteins of 141% and a Proteins of 97%. In data set [1] (0.0001% w/v), the ATP turned out to be 66%, the DNA is 78%, the GSH/proteins is 101% and the Proteins was 91%. In data set [1] (0.0003% w/v), this molecule displayed an ATP of 73%, a DNA of 59%, a GSH/proteins of 88% and a Proteins of 83%. The “amount of GSH synthesized by human fibroblasts” value in [1] (only at a concentration of 0.00003%) is listed as “modified”. Besides, the “inhibition of proteases such as elastase” value in data set [2] was “good potential to inhibit”. In addition, the IC50 in data set [2] (30 minutes at room temperature, Elastin-Congo red, read-out: Elastase EC 50 (concentration which reduces the enzymatic activity by 50%) (converted)) is 1810 µM. Moreover, the “protection of human fibroblasts from toxic UVA effects” value in [3] is reported as “moderately protected”. Moreover, in data set [3] (UV-A 20 J/cm^2, dose 0.0001%), the “GSH/protein, % against control” value is on record as 94%; the “Released MDA, % against control” value was determined as 81%; the “cell's protein, % against control” value amounted to 139%. Further, in data set [3] (UV-A 20 J/cm^2, dose 0.0003%), the “GSH/protein, % against control” value is given as 22%; the “Released MDA, % against control” value is on record as 70%; the “cell's protein, % against control” value is 42%. In data set [4], the “activity on chronic dermal inflammation” value is recorded as “significantly effective”. The “UV toxic effects on the number of viable cells (cell number and released LDH)” value in [5] is listed as “not modified”. Besides, in data set [5] (dose 0.00001%), the “Cell number, % against control” value stood at 21%; the “Released LDH, % against control” value came out at 135%; the “Released PGE2, % against control” value was 135%. Also, in data set [5] (dose 0.00003%), the “Cell number, % against control” value amounted to 23%; the “Released LDH, % against control” value turned out to be 118%; the “Released PGE2, % against control” value is recorded as 164%. Besides, in [6], the “interaction with the ursolic acid binding site of HLE” value is listed as “can also interact with this binding site”. Also, in data set [7], the viability at 3 days, 0.0001 % was 104%; the viability at 3 days, 0.0003 % was found to be 105%; the viability at 3 days, 0.001 % is 43%; the viability at 3 days, 0.003 % amounted to 34%. Further, the “LD50 (% w/v)” value in data set [8] (human fibroblasts, 3 days incubation) turned out to be 0.0009% w/v. Also, the “safe at concentrations up to” value in [8] (human, 3 days) is “up to 0.0003%”.
Regarding `C[C@H]1[C@H](C)CC[C@]2(C(=O)O)CC[C@]3(C)C(=CC[C@@H]4[C@@]5(C)CC[C@H](O)C(C)(C)[C@@H]5CC[C@]43C)[C@H]12` [ursolic acid], the “activity on chronic dermal inflammation” value in data set [4] is on record as “significantly effective”. The Ki in data set [6] (hydrolysis of peptide substrates in phosphate-buffered saline, read-out: inhibition constant, HLE) was 4 to 6 µM. Also, the IC50 in [9] is 4.4 µM.

The viability is a read-out of living cells in per cent, often relative to untreated cells.

The record behind these values is patent US8815305B2, “Composition containing a plant extract and process for producing same” (BASF Beauty Care Solutions France S.A.S., priority 2003, dated 2014).
